Source: publication PMC9964602, “Myxinidin-Derived Peptide against Biofilms Caused by Cystic Fibrosis Emerging Pathogens” (International Journal of Molecular Sciences, 2023)
Where two headings read alike, the source gives them in different places. Where a SMILES comes first, the peptide text is derived from it. [ ]: non-standard residue; d: D form. Dap = NC[C@H](N)C(=O)O; Aib = CC(C)(N)C(=O)O

How the values were obtained:
A. xylosoxidans DSM 2402 = assay: microbe, parasite or virus in culture; type: cell-based, Achromobacter xylosoxidans
Procedure: (§1) Candida albicans ATCC 90028, Achromobacter xylosoxidans DSM 2402, and Stenotrophomonas maltophilia DSM 50170 were used in this study. Microbial strains were grown in Tryptone Soya Broth (TSB, VWR chemicals, Leuven, Belgium), supplemented with 0.1% glucose only for C. albicans at 37 °C overnight. Then, cells were harvested by centrifugation at 5000 rpm, 4 °C for 10 min, followed by washing in Phosphate Buffered Saline (PBS, Oxoid Ltd., Basingstoke, UK) three times. Standardized 1 × 10^6 CFU mL^-^1 inoculum was used in the next experiments. The minimum inhibitory concentrations (MIC) of WMR-4 against C. albicans, A. xylosoxidans, and S. maltophilia were determined using a broth microdilution method accord-ing to CLSI M27-A3 and […]-A9 guidelines. Concentrations of WMR-4 from 0.5 to 50 μM were added to wells of a 96-well microplate containing 1 × 10^6 CFU mL^-1 cells. Fluconazole at a concentration range from 1 to 50 μM and meropenem at a concentration range from 10 to 200 μM were used as control. The plate was incubated at 37 °C for 24/48 h due to poor growth after 24 h for the two bacterial species. Next, the absorbance at 590 nm was read using a microplate reader (Synergy H4; BioTek Instruments, Agilent Technologies, Winooski, VT, USA). MIC value was defined as a lowest concentration of WMR and analogues able to inhibit total microbial growth.

S. maltophilia DSM 50170 = assay: microbe, parasite or virus in culture; type: cell-based, Stenotrophomonas maltophilia
Procedure: as §1

C. albicans ATCC 90028 = type: cell-based, Candida albicans; conditions: ATCC 90028, 48 h
Procedure: as §1

in vitro = in vitro ADME, bovine; conditions: serum
Procedure: The proteolytic stability of WMR and WMR-4 were determined in bovine serum acquired from ThermoFisher Scientific (Milan, Italy). Peptides were dissolved in sterile water to prepare stock solutions, then incubated with 50% of bovine serum to obtain a final concentration of 200 μM [69]. The mixture peptide/serum was incubated at 37 ± 1 °C for different times (0.25, 0.50, 1, 2, 3, 4, 5, and 16 h). At each pre-established time, an aliquot of reaction was taken, and acetonitrile was added to favor the precipitation of serum proteins. Then, the solution was cooled at 4 °C and centrifuged for 15 min at 13,000× g rpm. The supernatant was analyzed by HPLC in a Phenomenex Jupiter 4 μm Proteo 90 Å 250 × 21.20 mm column with a linear gradient of solvent B (0.1% TFA in acetonitrile) in solvent A (0.1% TFA in water) from 5 to 70% in 20 min with UV detection at 210 nm and a flow rate of 1 mL/min.

| MIC (A. xylosoxidans DSM 2402; DSM 2402, 48 h) | MIC (S. maltophilia DSM 50170; DSM 50170, 48 h) | Compound | further results |
| --- | --- | --- | --- |
| > 50 µM | > 50 µM | CC[C@H](C)[C@H](NC(=O)CNC(=O)[C@@H](N)Cc1c[nH]c2ccccc12)C(=O)N[C@@H](CCCNC(=N)N)C(=O)N[C@@H](CCCNC(=N)N)C(=O)N[C@H](C(=O)N[C@@H](CC(C)C)C(=O)N[C@@H](CCCCN)C(=O)N[C@@H](Cc1ccc(O)cc1)C(=O)NCC(=O)N[C@@H](CCCCN)C(=O)N[C@@H](CCCNC(=N)N)C(=O)N[C@H](CO)C(=O)N[C@@H](CCCCN)C(N)=O)[C@@H](C)CC [WMR-2] (H-WGIRRILKYGKR[dS]K-NH2) | – |
| > 50 µM | > 50 µM | CC[C@H](C)[C@H](NC(=O)CNC(=O)[C@@H](N)Cc1c[nH]c2ccccc12)C(=O)N[C@@H](CCCNC(=N)N)C(=O)N[C@@H](CCCNC(=N)N)C(=O)N[C@H](C(=O)N[C@@H](CC(C)C)C(=O)N[C@@H](CCCCN)C(=O)N[C@@H](Cc1ccc(O)cc1)C(=O)NCC(=O)N[C@@H](CCCCN)C(=O)N[C@@H](CCCNC(=N)N)C(=O)N[C@@H](CO)C(=O)N[C@H](CCCCN)C(N)=O)[C@@H](C)CC [WMR-1] (H-WGIRRILKYGKRS[dK]-NH2) | – |
| 25 µM | 25 µM | CC[C@H](C)[C@H](NC(=O)CNC(=O)[C@@H](N)Cc1c[nH]c2ccccc12)C(=O)N[C@@H](CCCNC(=N)N)C(=O)N[C@@H](CCCNC(=N)N)C(=O)N[C@H](C(=O)N[C@@H](CC(C)C)C(=O)N[C@@H](CCCCN)C(=O)N[C@@H](Cc1ccc(O)cc1)C(=O)NCC(=O)N[C@@H](CCCCN)C(=O)N[C@@H](CCCNC(=N)N)C(=O)N[C@@H](CO)C(=O)N[C@@H](CN)C(N)=O)[C@@H](C)CC [WMR-5] (H-WGIRRILKYGKRS[Dap]-NH2) | – |
| – | – | C[C@@H](O)[C@H]1C(=O)N2C(C(=O)O)=C(S[C@@H]3CN[C@H](C(=O)N(C)C)C3)[C@H](C)[C@H]12 [MEM, meropenem, reference compound] | MIC (A. xylosoxidans DSM 2402; Achromobacter xylosoxidans, DSM2402, A. xylosoxidans DSM 2402, control drug, value outside parentheses, read-out: MIC): 65 µg/mL; MIC (S. maltophilia DSM 50170; Stenotrophomonas maltophilia, DSM50170, S. maltophilia DSM 50170, control drug, value outside parentheses, read-out: MIC): 130 µg/mL |
| 25 µM | 25 µM | CC[C@H](C)[C@H](NC(=O)[C@H](CCCNC(=N)N)NC(=O)[C@H](CCCNC(=N)N)NC(=O)[C@@H](NC(=O)C(C)(C)NC(=O)[C@@H](N)Cc1c[nH]c2ccccc12)[C@@H](C)CC)C(=O)N[C@@H](CC(C)C)C(=O)N[C@@H](CCCCN)C(=O)N[C@@H](Cc1ccc(O)cc1)C(=O)NCC(=O)N[C@@H](CCCCN)C(=O)N[C@@H](CCCNC(=N)N)C(=O)N[C@H](CO)C(=O)N[C@H](CCCCN)C(N)=O [WMR-4] (H-W[Aib]IRRILKYGKR[dS][dK]-NH2) | MIC (C. albicans ATCC 90028): 50 µM; remaining at 5 h, 200 μM (in vitro): 70%; remaining at 16 h, 200 μM (in vitro): ~30% |
| 50 µM | 50 µM | CC[C@H](C)[C@H](NC(=O)CNC(=O)[C@@H](N)Cc1c[nH]c2ccccc12)C(=O)N[C@@H](CCCNC(=N)N)C(=O)N[C@@H](CCCNC(=N)N)C(=O)N[C@H](C(=O)N[C@@H](CC(C)C)C(=O)N[C@@H](CCCCN)C(=O)N[C@@H](Cc1ccc(O)cc1)C(=O)NCC(=O)N[C@@H](CCCCN)C(=O)N[C@@H](CCCNC(=N)N)C(=O)N[C@@H](CO)C(=O)N[C@@H](CCCCN)C(N)=O)[C@@H](C)CC [WMR] (H-WGIRRILKYGKRSK-NH2) | remaining at 0.25 h, 200 μM (in vitro): 75%; remaining at 0.5 h, 200 μM (in vitro): 75%; remaining at 1 h, 200 μM (in vitro): 68%; remaining at 2 h, 200 μM (in vitro): 53%; remaining at 3 h, 200 μM (in vitro): 36%; remaining at 5 h, 200 μM (in vitro): 20% |
| > 50 µM | > 50 µM | CC[C@H](C)[C@H](NC(=O)[C@H](CCCNC(=N)N)NC(=O)[C@H](CCCNC(=N)N)NC(=O)[C@@H](NC(=O)C(C)(C)NC(=O)[C@@H](N)Cc1c[nH]c2ccccc12)[C@@H](C)CC)C(=O)N[C@@H](CC(C)C)C(=O)N[C@@H](CCCCN)C(=O)N[C@@H](Cc1ccc(O)cc1)C(=O)NCC(=O)N[C@@H](CCCCN)C(=O)N[C@@H](CCCNC(=N)N)C(=O)N[C@@H](CO)C(=O)N[C@@H](CCCCN)C(N)=O [WMR-3] (H-W[Aib]IRRILKYGKRSK-NH2) | – |
